Activity calls are given as the source filed them.
Experiments:
[1] = Shn3 3'UTR reporter inhibitors, dose response, cell-based, Clone20 osteoblasts, firefly luciferase, cherry-picked (AID 624132); format: functional;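 also: firefly luciferase luminescence from reporter carrying the Shn3 3'UTR in osteoblasts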
[2] = cytotoxicity in HEK-293T NF-kB-Luc cells, dose response, cytotoxicity control for B/T-cell NF-kB inhibitor project, cell-based, uHTS hits (AID 489019); format: functional;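 also: IC50 reflects cytotoxicity as loss of cell viability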
[3] = HepG2 cell cytotoxicity, dose response, cytotoxicity control for Shn3 inhibitor project, CellTiter-Glo, cherry-picked (AID 624134); format: functional, cell-based
[4] = insulin promoter down-regulators in MIN6 cells, imaging, high-content screening, mouse beta cells (AID 1628); format: functional
cells [5] = format: functional, cell-based; details: HEK-CNG
[6] = control 3'UTR Renilla luciferase suppression, dose response, counter-screen for Shn3 inhibitor project, cell-based, Clone20-Shn3RL, cherry-picked (AID 624133); format: functional
Jurkat = assay: antigen receptor-induced NF-kB inhibitors, dose response, Jurkat, luciferase reporter, luminescence, B- and T-cell (AID 489004); format: functional, cell-based; details: Homo sapiens;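 also: NF-kB luciferase reporter Jurkat cells stimulated with PMA plus ionomycin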
[7] = cytotoxicity in MIN6 insulinoma cells, dose response, cytotoxicity control, cell-based, mouse insulinoma (AID 2122); format: functional;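 also: confirmatory high-throughput counterscreen run to flag cytotoxic compounds; mouse MIN-6 beta cells carrying an insulin promoter eGFP reporter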
Galanin receptor type 3 = target: T1, Galanin receptor type 3 (Homo sapiens, UniProt O60755); assay: Fluorescence-based cell-based primary high throughput dose response assay to identify antagonists of the Galanin Receptor 3 (GalR3).; format: functional
T1 sequence (O60755 whole entry): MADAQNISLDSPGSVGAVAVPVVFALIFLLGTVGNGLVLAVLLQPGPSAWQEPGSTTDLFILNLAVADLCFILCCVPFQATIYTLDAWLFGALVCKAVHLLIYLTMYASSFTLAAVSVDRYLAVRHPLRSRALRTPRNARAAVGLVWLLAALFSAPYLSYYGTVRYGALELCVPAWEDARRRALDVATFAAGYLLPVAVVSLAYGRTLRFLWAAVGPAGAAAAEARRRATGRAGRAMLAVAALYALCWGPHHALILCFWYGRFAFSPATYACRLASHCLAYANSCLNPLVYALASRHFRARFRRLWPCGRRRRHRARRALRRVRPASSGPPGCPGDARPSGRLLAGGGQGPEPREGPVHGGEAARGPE

HEK293 [8] = assay: cells; details: Homo sapiens
HEK293 [9] = assay: cells; details: Homo sapiens; remark: listed apart in the source
[10] = target: T2, Microphthalmia-associated transcription factor (Homo sapiens, UniProt O75030); assay: TRPM1 promoter luciferase signal decrease, dose response, MITF inhibitor project, cell-based, SK-MEL-5, cherry-picked, set 3 (AID 493073); format: functional
T2 sequence (O75030 whole entry): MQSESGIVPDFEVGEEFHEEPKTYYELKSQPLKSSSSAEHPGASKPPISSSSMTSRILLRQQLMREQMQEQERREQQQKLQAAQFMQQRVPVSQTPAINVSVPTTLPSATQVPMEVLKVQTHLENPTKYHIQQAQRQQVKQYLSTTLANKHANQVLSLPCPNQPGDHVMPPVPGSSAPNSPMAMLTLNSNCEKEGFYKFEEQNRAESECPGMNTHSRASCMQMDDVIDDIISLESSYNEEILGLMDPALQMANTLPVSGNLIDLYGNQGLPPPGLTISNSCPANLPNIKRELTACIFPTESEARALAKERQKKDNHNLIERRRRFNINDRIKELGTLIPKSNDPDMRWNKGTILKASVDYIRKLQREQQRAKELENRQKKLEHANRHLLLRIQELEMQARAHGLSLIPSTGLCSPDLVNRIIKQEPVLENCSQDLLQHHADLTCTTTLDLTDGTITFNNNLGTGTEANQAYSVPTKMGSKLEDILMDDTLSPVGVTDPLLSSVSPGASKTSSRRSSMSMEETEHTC

A-375 [11] = assay: MITF: Counter assay: A375 proliferation Measured in Cell-Based System Using Plate Reader - 2084-03_Inhibitor_Dose_DryPowder_Activity. [Related pubchem assays (depositor defined):AID488944]; format: functional; details: Homo sapiens
A-375 [12] = assay: A375 melanoma cell viability reduction, dose response, counter-screen for MITF modulator project, cherry-pick samples, set 2 (AID 540335); format: functional, cell-based; details: Homo sapiens
[13] = Luminescence Cell-Based Dose Response HTS to Identify Inhibitors of 5'UTR Stem-Loop Driven Prion Protein mRNA Translation in H4 Neuroglioblastoma Cells. [Related pubchem assays: 1827 (Project Summary), 1813 (Primary HTS)]; format: functional
[14] = inhibitors of firefly luciferase expression or activity, dose response, H4 neuroglioma cells, luminescence (AID 1990); format: functional, cell-based
[15] = inhibitors of SNCA 5'UTR-driven reporter translation, confirmation, H4 neuroglioma cells, luminescence (AID 1988); format: functional, cell-based
[16] = growth suppression of beta-catenin-knockout colon cells, dose response, cell-based, HCT116, human colon tumor (AID 1045); format: functional;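 also: HCT116 colon tumor cells with beta catenin knocked out; cells exposed to compound for 60 hours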
[17] = inhibitors of intracellular T. cruzi replication, confirmation, NIH3T3 host cells, beta-gal luminescence (AID 2044); format: functional, cell-based;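 also: intracellular parasites grown in NIH/3T3 mouse fibroblasts as host cells; luminescent beta-galactosidase reporter signal from transgenic T. cruzi replicating inside host cells; inhibitors lower the luminescence signal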
[18] = growth suppression of PTEN-null colon cells, dose response, cell-based, HCT116 PTEN knockout (AID 1047); format: functional;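 also: HCT116 colon tumor cells with PTEN knocked out; cells exposed to compound for 60 hours before readout; potency for loss of cell viability measured by luminescence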
[19] = cytotoxicity toward NIH3T3 fibroblasts, dose response, counter-screen, cell-based, ATP luminescence, mouse fibroblasts (AID 2010); format: functional;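 also: cells exposed to compound for about 90 hours before reading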
[20] = CEM21 lymphoblast cell cytotoxicity, dose response, cytotoxicity control for viral fusion inhibitor project, CellTiter-Glo luminescence, cherry-picked (AID 652042); format: functional, cell-based;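 also: potency for signal decrease meaning cytotoxicity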
[21] = inhibitors of HIV Env-driven cell fusion, dose response, cherry-pick (AID 652057); format: functional, cell-based
[22] = off-target signal loss in HeLa-CEM21 co-culture – HeLa F-luc CTL cells, cherry-picked, counter-screen for HIV-1 Env fusion inhibitor project, dose response (AID 652040); format: functional, cell-based;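 also: potency for signal decrease marking cytotoxic or nonspecific inhibition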
[23] = inhibitors of clade B AD8 Env fusion, dose response, cell-based, cherry-pick (AID 652062); format: functional;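 also: luciferase signal from cell-cell fusion driven by HIV-1 clade B AD8 Env; potency is for inhibitors of fusion seen as a drop in luminescence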
[24] = ZM109 Env clade C HIV-1 fusion inhibitors, dose response, HeLa effector, CEM target cells, luciferase, cherry-pick (AID 652058); format: functional, cell-based
[25] = A549 cell cytotoxicity, dose response, cytotoxicity control, plate reader, cherry-pick, antagonist series (AID 743412); format: functional, cell-based
[26] = LGR2 antagonists, dose response, cell-based, HEK293, CRE-luciferase reporter, cherry pick, set 2 (AID 743343); format: functional;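 also: transfected cells were stimulated with diluted bursicon conditioned medium after compound addition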
Paired box protein Pax-8 = Paired box protein Pax-8 (Homo sapiens, UniProt Q06710); assay: inhibitors of PAX8-driven TPO luciferase reporter, dose response, RMG-I cells, cherry-pick (AID 687027); format: functional, cell-based;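 also: luciferase reporter driven by Pax8 target thyroperoxidase promoter measured by SteadyGlo luminescence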
[27] = HepG2 cell cytotoxicity, dose response, cytotoxicity control, plate reader, cherry-pick, antagonist series (AID 743416); format: functional, cell-based
[28] = MC4R antagonists, dose response, counter-screen for LGR2 antagonist project, cell-based, plate reader, cherry pick (AID 743444); format: functional;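 also: transfected HEK 293 cells stimulated with alpha-MSH peptide; potency of inhibitors of the alpha-MSH evoked signal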
[29] = THP-1 cell cytotoxicity, dose response, cytotoxicity control for non-replicating M. tuberculosis project (AID 489025); format: functional
[30] = Vero E6 cell cytotoxicity, dose response, cytotoxicity control for non-replicating M. tuberculosis project, secondary assay (AID 492998); format: functional, VeroE6; details: Vero C1008
[31] = target: Heat shock protein HSP 90-alpha (Homo sapiens, UniProt P07900); format: functional, organism-based
[32] = target: T3, Alkaline phosphatase, tissue-nonspecific isozyme (Homo sapiens, UniProt P05186); assay: TNAP enzyme inhibition by screening hits, dose response, selectivity assay for mouse IAP inhibitor project, biochemical, human TNAP, uHTS hits (AID 488906); format: functional
T3 sequence (P05186 whole entry): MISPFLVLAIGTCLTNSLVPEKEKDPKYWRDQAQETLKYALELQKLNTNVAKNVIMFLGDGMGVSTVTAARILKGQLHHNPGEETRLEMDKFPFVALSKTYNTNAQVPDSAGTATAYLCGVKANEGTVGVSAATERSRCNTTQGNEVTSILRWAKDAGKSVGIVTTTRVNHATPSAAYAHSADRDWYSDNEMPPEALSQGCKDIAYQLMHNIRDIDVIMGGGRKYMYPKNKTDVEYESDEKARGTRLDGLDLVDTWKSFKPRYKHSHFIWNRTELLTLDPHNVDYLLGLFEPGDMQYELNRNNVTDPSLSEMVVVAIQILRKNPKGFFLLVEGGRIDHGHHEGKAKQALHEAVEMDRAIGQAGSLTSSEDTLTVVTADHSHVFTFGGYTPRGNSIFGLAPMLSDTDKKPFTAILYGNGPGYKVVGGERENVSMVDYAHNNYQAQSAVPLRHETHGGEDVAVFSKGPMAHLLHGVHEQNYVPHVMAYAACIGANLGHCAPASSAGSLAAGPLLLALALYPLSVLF

[33] = target: Intestinal-type alkaline phosphatase (Mus musculus, UniProt P24822); assay: PubChem AID 488785; format: functional
[34] = target: Intestinal-type alkaline phosphatase (Homo sapiens, UniProt P09923); assay: inhibition of human intestinal alkaline phosphatase – biochemical, dose response (AID 488876); format: functional
cells [35] = format: functional
[36] = microbe, parasite or virus in culture; format: functional; details: Mycobacterium tuberculosis

Intestinal-type alkaline phosphatase (Homo sapiens, UniProt P09923), sequence (P09923 whole entry): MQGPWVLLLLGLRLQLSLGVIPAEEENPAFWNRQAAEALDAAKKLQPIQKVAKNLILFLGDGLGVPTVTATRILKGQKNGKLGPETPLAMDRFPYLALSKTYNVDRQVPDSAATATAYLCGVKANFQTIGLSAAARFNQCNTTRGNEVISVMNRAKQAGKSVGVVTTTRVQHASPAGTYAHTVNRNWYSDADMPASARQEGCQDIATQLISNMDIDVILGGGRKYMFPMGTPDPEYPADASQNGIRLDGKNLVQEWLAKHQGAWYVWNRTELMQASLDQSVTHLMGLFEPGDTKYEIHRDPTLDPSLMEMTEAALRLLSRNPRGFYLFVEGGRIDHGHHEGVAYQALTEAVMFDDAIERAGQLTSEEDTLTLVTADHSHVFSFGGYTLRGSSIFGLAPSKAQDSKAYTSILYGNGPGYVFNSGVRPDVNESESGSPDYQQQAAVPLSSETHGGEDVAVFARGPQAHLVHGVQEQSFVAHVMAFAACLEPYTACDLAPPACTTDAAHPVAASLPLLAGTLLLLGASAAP
Paired box protein Pax-8, sequence (Q06710 whole entry): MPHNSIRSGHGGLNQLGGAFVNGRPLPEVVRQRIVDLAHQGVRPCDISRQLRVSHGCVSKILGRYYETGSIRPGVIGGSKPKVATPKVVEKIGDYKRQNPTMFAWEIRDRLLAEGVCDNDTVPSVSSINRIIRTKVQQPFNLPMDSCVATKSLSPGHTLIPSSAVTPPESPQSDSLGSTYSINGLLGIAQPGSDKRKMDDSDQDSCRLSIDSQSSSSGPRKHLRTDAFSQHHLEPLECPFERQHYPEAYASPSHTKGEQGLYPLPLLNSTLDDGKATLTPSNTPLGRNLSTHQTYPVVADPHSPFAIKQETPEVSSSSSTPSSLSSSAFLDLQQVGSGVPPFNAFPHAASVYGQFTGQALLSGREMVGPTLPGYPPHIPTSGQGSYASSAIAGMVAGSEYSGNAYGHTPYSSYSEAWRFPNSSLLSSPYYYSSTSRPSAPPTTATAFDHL
Intestinal-type alkaline phosphatase (Mus musculus, UniProt P24822), sequence (P24822 whole entry): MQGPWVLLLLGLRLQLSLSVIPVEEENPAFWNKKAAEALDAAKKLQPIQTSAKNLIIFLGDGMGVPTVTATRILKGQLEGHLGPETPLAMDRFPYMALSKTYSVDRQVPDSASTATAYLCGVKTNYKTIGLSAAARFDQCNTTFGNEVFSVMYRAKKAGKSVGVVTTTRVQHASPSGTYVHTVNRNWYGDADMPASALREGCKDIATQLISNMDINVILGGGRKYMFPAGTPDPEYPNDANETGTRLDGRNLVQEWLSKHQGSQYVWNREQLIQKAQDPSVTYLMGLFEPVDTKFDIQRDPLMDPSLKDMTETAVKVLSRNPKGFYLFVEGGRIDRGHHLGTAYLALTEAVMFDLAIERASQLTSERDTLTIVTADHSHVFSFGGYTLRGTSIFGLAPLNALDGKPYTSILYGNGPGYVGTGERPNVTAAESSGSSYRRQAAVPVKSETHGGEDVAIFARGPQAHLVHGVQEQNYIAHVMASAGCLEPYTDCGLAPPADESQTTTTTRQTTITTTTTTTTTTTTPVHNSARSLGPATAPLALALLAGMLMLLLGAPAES

CC(=O)c1cn(Cc2ccccc2C#N)c2ccccc12
AC50 [1]: 0.527 µM (active)
IC50 [2]: > 80 µM (inactive)
AC50 [3]: 2.2 µM (active)
IC50 [4]: 1.01 µM (active)
EC50 (cells [5]): > 29.9 µM (inactive)
AC50 [6]: 4.28 µM (active)
IC50 (Jurkat): 30 µM (inactive)
IC50 [7]: 0.64 µM (active)
IC50 (Galanin receptor type 3): 3.07 µM (active)

COc1ccc(OC)c(-c2cc(C(=O)Nc3c(C)nn(Cc4ccccc4)c3C)no2)c1
EC50 (HEK293 [8]): > 59.6 µM (inactive)
EC50 (HEK293 [9]): > 59.6 µM (inactive)

CC1CCN(Cc2nc(-c3ccc(Cl)cc3)no2)CC1
AC50 [10]: 7.62 µM (active)
AC50 (A-375 [11]): > 35 µM (active)
AC50 (A-375 [12]): > 35 µM (active)

CCCCn1c(SCc2ccc(Cl)cc2)nc2c1c(=O)[nH]c(=O)n2C
EC50 (HEK293 [8]): > 59.6 µM (inactive)
EC50 [13]: 16.2 µM (active)
EC50 [14]: 15.8 µM (active)
EC50 (HEK293 [9]): > 59.6 µM (inactive)
EC50 [15]: 17 µM (active)

O=C(c1ccc(F)cc1)C(CN1CCOCC1)c1ccccc1 (centres undefined)
AC50 [1]: 17.6 µM (active)
AC50 [10]: 5.96 µM (active)
AC50 (A-375 [11]): > 35 µM (active)
EC50 [16]: 2.42 µM (active)
AC50 [3]: 19.4 µM (active)
IC50 [4]: 4.17 µM (active)
EC50 [17]: 4.06 µM (active)
EC50 [18]: 3.36 µM (active)
EC50 [19]: 10.9 µM (active)
AC50 [6]: 6.91 µM (active)
IC50 [7]: 3.27 µM (active)
AC50 (A-375 [12]): > 35 µM (active)

CCOC(=O)[C@@H](C)N(Cc1ccc(OC)cc1)S(=O)(=O)N(Cc1ccccc1)[C@H](C(=O)OC)C(C)C
EC50 (HEK293 [8]): > 59.7 µM (inactive)
EC50 (HEK293 [9]): > 59.7 µM (inactive)

COc1ccc(CCN2C(=O)c3[nH]nc(-c4ccccc4O)c3C2c2ccccc2)cc1OC (centres undefined)
EC50 (HEK293 [8]): > 59.7 µM (inactive)
AC50 [20]: 52.7 µM (active)
EC50 (HEK293 [9]): > 59.7 µM (inactive)
AC50 [21]: 0.376 µM (active)
AC50 [22]: 0.929 µM (active)
AC50 [23]: 0.621 µM (active)
AC50 [24]: 0.625 µM (active)

COc1ccc(C(=O)CN2C(=O)c3ccccc3S2(=O)=O)cc1
AC50 [25]: > 52 µM (inactive)
IC50 [2]: > 80 µM (inactive)
AC50 [21]: 1.07 µM (active)
AC50 [26]: 0.675 µM (active)
AC50 (Paired box protein Pax-8): 3.53 µM (active)
AC50 [27]: > 52 µM (inactive)
AC50 [22]: 2.16 µM (active)
IC50 (Jurkat): 1.08 µM (active)
AC50 [23]: 2.54 µM (active)
AC50 [28]: 0.691 µM (active)
AC50 [24]: 10.7 µM (active)

O=C(N/N=C/c1ccc([N+](=O)[O-])o1)c1sc2ccccc2c1Cl
CC50 [29]: 19.1 µM (active)
CC50 [30]: > 20 µM (active)
AC50 [31]: 4.4 µM (active)
AC50 [10]: 4.61 µM (active)
AC50 (A-375 [11]): > 11 µM (active)
IC50 [32]: > 100 µM (inactive)
IC50 [33]: 7.89 µM (active)
IC50 [34]: > 100 µM (inactive)
IC50 (cells [35]): 2.18 µM (active)
CC50 [36]: 20.2 µM (active)
AC50 (A-375 [12]): > 11 µM (active)

Cc1ccc(-c2nc(C#N)c(NCc3ccco3)o2)cc1
AC50 (A-375 [11]): > 35 µM (active)
AC50 (A-375 [12]): > 35 µM (active)

From ChEMBL document CHEMBL1201862, “PubChem BioAssay data set” (2004)
